Laboratory results reported in patent US20100267561A1, “HERBICIDAL PYRIDAZINONE DERIVATIVES” (priority 2007, published 2010).
Where two headings read alike, the source gives them in different places.

What was measured:
Experiment in all cases: Test B pre-/postemergence plant response
Format in all cases: in vivo
[1] = system: Russian thistle (Salsola iberica); details: Preemergence
Description: (§1) Seeds of plant species selected from blackgrass (Alopecurus myosuroides), downy bromegrass (Bromus tectorum), green foxtail (Setaria viridis), Italian ryegrass (Lolium multiflorum), wheat (Triticum aestivum), wild oat (Avena fatua), catchweed bedstraw (Galium aparine), bermudagrass (Cynodon dactylon), surinam grass (Brachiaria decumbens), cocklebur (Xanthium strumarium), corn (Zea mays), large crabgrass (Digitaria sanguinalis), woolly cupgrass (Eriochloa villosa), giant foxtail (Setaria faberii), goosegrass (Eleusine indica), johnsongrass (Sorghum halepense), kochia (Kochia scoparia), lambsquarters (Chenopodium album), morningglory (Ipomoea coccinea), eastern black (E.B.) nightshade (Solanum ptycanthum), yellow nutsedge (Cyperus esculentus), pigweed (Amaranthus retroflexus), common ragweed (Ambrosia elation), Russian thistle (Salsola iberica), soybean (Glycine max), common (oilseed) sunflower (Helianthus annuus), and velvetleaf (Abutilon theophrasti) were planted and treated preemergence with test chemicals formulated in a non-phytotoxic solvent mixture which included a surfactant.
(§2) At the same time, plants selected from these crop and weed species and also winter barley (Hordeum vulgare), canarygrass (Phalaris minor), chickweed (Stellaria media) and windgrass (Apera spica-venti) were treated with postemergence applications of some of the test chemicals formulated in the same manner. Plants ranged in height from 2 to 18 cm (1- to 4-leaf stage) for postemergence treatments.
(§3) Plant species in the flooded paddy test consisted of rice (Oryza sativa), umbrella sedge (Cyperus difformis), ducksalad (Heteranthera limosa) and barnyardgrass (Echinochloa crus-galli) grown to the 2-leaf stage for testing. At time of treatment, test pots were flooded to 3 cm above the soil surface, treated by application of test compounds directly to the paddy water, and then maintained at that water depth for the duration of the test. Treated plants and controls were maintained in a greenhouse for 13 to 15 days, after which time all species were compared to controls and visually evaluated. Plant response ratings, summarized in Table B, are based on a scale of 0 to 100 where 0 is no effect and 100 is complete control. A dash (-) response means no test result.

[2] = system: velvetleaf (Abutilon theophrasti); details: for pest or weed control at 31 g/ha / pest or weed control at 62 g/ha: Abutilon theophrasti, read-out: Plant response rating, Velvetleaf; for pest or weed control at 31 g/ha: 31 g ai/ha; for pest or weed control at 62 g/ha: 62 g ai/ha, 100 complete control
Description: as §1, §2, §3

[3] = system: eastern black (E.B.) nightshade (Solanum ptycanthum); details: Preemergence
Description: as §1, §2, §3

[4] = system: Italian ryegrass (Lolium multiflorum); details: for pest or weed control at 31 g/ha / pest or weed control at 62 g/ha: Lolium multiflorum, read-out: Plant response rating, Ryegrass, Italian; for pest or weed control at 31 g/ha: 31 g ai/ha; for pest or weed control at 62 g/ha: 62 g ai/ha, 100 complete control
Description: as §1, §2, §3

[5] = system: soybean (Glycine max); details: for plant injury at 31 g/ha / plant injury at 62 g/ha: Glycine max, read-out: Plant response rating, Soybean; for plant injury at 31 g/ha: 31 g ai/ha; for plant injury at 62 g/ha: 62 g ai/ha, 100 complete control
Description: as §1, §2, §3

[6] = system: downy bromegrass (Bromus tectorum); details: for pest or weed control at 31 g/ha: 31 g ai/ha
Description: as §1, §2, §3

[7] = system: morningglory (Ipomoea coccinea); details: for pest or weed control at 31 g/ha / pest or weed control at 62 g/ha: Ipomoea, read-out: Plant response rating, Morningglory; for pest or weed control at 31 g/ha: 31 g ai/ha; for pest or weed control at 62 g/ha: 62 g ai/ha, 100 complete control
Description: as §1, §2, §3

[8] = system: green foxtail (Setaria viridis); details: 8 g ai/ha, postemergence; 0-100 scale
Description: as §1, §2, §3

[9] = 8 g ai/ha, scale 0 to 100 (0 no effect, 100 complete control)
[10] = 8 g ai/ha, postemergence, 0-100 scale
[11] = 16 g ai/ha, postemergence, 0-100 scale
[12] = post-emergence, Postemergence, scale 0 to 100
[13] = post-emergence, Postemergence, scale 0 to 100, 0 no effect
[14] = pre-emergence, Preemergence, scale 0 to 100 (0 no effect, 100 complete control)
[15] = pre-emergence, Preemergence, 0 to 100 scale, 0 no effect
[16] = Preemergence, 8 g ai/ha, scale 0 to 100 (0 no effect, 100 complete control)
[17] = Preemergence, 16 g ai/ha, scale 0 to 100

## Cc1cc(-c2ccc(Br)cc2)nn1-c1c(OC(=O)C2CC2)cnn(C(=O)C2CC2)c1=O [Compound 80, 5-[3-(4-bromophenyl)-5-methyl-1H-pyrazol-1-yl]-1-(cyclopropylcarbonyl)-1,6-dihydro-6-oxo-4-pyridazinyl cyclopropanecarboxylate]
[1]; [9]
  Russian Thistle plant response rating: 0
[1]; 31 g ai/ha, scale 0 to 100 (0 no effect, 100 complete control)
  Plant response rating, Russian Thistle: 0
[1]; 62 g ai/ha, 0 to 100 scale, 0 no effect, 100 complete control
  Plant response rating, Russian Thistle: 0
[1]; 16 g ai/ha, scale 0 to 100
  Russian Thistle plant response rating: 0
[2]; [10]
  Velvetleaf plant response rating: 0
[2]; [11]
  Velvetleaf plant response rating: 0
[2]; [12]
  pest or weed control at 31 g/ha: 0%
[2]; [13]
  pest or weed control at 62 g/ha: 0%
[2]; [14]
  pest or weed control at 31 g/ha: 0%
[2]; [15]
  pest or weed control at 62 g/ha: 0%
[2]; [16]
  Velvetleaf plant response rating: 0
[2]; [17]
  Velvetleaf plant response rating: 0
[3]; [9]
  Nightshade, E. B. plant response rating: 0
[3]; Solanum, pre-emergence, 31 g ai/ha, scale 0 to 100 (0 no effect, 100 complete control), read-out: Plant response rating, Nightshade, E. B.
  pest or weed control at 31 g/ha: 0%
[3]; Solanum, pre-emergence, 62 g ai/ha, 0 to 100 scale, 0 no effect, 100 complete control, read-out: Plant response rating, Nightshade, E. B.
  pest or weed control at 62 g/ha: 0%
[4]; [10]
  Ryegrass, Italian plant response rating: 80
[4]; [11]
  Ryegrass, Italian plant response rating: 98
[4]; [12]
  pest or weed control at 31 g/ha: 100%
[4]; [13]
  pest or weed control at 62 g/ha: 100%
[4]; [14]
  pest or weed control at 31 g/ha: 40%
[4]; [15]
  pest or weed control at 62 g/ha: 100%
[4]; [16]
  Ryegrass, Italian plant response rating: 0
[4]; [17]
  Ryegrass, Italian plant response rating: 40
[5]; [10]
  Soybean plant response rating: 0
[5]; [11]
  Soybean plant response rating: 0
[5]; [12]
  plant injury at 31 g/ha: 15%
[5]; [13]
  plant injury at 62 g/ha: 20%
[5]; [14]
  plant injury at 31 g/ha: 0%
[5]; [15]
  plant injury at 62 g/ha: 0%
[5]; [16]
  Soybean plant response rating: 0
[5]; [17]
  Soybean plant response rating: 0
[6]; [10]
  Bromegrass, Downy plant response rating: 40
[6]; Bromus tectorum, post-emergence, Postemergence, 16 g ai/ha, scale 0 to 100, read-out: Plant response rating, Bromegrass, Downy
  pest or weed control at 16 g/ha: 45%
[6]; Bromus tectorum, post-emergence, Postemergence, scale 0 to 100, read-out: Plant response rating, Bromegrass, Downy
  pest or weed control at 31 g/ha: 90%
[6]; Bromus tectorum, pre-emergence, Preemergence, scale 0 to 100 (0 no effect, 100 complete control), read-out: Plant response rating, Bromegrass, Downy
  pest or weed control at 31 g/ha: 85%
[6]; Bromus tectorum, pre-emergence, Preemergence, 62 g ai/ha, 0 to 100 scale, 0 no effect, 100 complete control, read-out: Plant response rating, Bromegrass, Downy
  pest or weed control at 62 g/ha: 85%
[6]; [16]
  Bromegrass, Downy plant response rating: 0
[6]; [17]
  Bromegrass, Downy plant response rating: 30
[7]; [10]
  Morningglory plant response rating: 0
[7]; [11]
  Morningglory plant response rating: 0
[7]; [12]
  pest or weed control at 31 g/ha: 0%
[7]; [13]
  pest or weed control at 62 g/ha: 0%
[7]; [14]
  pest or weed control at 31 g/ha: 0%
[7]; [15]
  pest or weed control at 62 g/ha: 0%
[7]; [16]
  Morningglory plant response rating: 0
[7]; [17]
  Morningglory plant response rating: 0
[8]
  Foxtail, Green plant response rating: 50
